According to EP0314400A1, “Therapeutically active condensed thiadiazinones” (SMITH KLINE & FRENCH LABORATORIES LIMITED, priority 1987, dated 1989):

What was measured:
Anaesthetised Cats = experiment: Cardiac stimulant activity in vivo (anaesthetised cats); details: anaesthetised cats pretreated with pempidine and propranolol, administered intravenously; for ED50: Felis catus, iv, read-out: ED₅₀ (dose to increase left ventricular dp/dt max by 50%)
From the text: Cardiac Stimulant Activity - In vivo (Anaesthetised Cats)
In anaesthetised cats pretreated with a ganglion blocker (pempidine) and propranolol, the compounds of the Examples cause sustained increases in left ventricular dp/dt max (this is an index of left ventricular contractility) when administered intravenously. The dose to increase left ventricular dp/dt max by 50% is given as the ED₅₀.

[1] = biological target: PDE (type III) enzyme (obtained from cat heart homogenate); experiment: Inhibition of phosphodiesterase (PDE) (type III); type: biochemical; details: 1 µM cAMP, read-out: IC₅₀
Procedure: Inhibition of Phosphodiesterase (PDE) (Type III)
Following the procedure described in EPA-247,724, IC₅₀ values (the concentration of inhibitor required for 50% inhibition of enzyme activity) were obtained by incubation of a PDE (type III) enzyme (obtained from cat heart homogenate) at 1 µM cAMP and a range of inhibitor concentrations from 0.1 x IC₅₀ to 100 x IC₅₀.

| IC50 [1] | Molecule | ED50 (Anaesthetised Cats) | ED₅₀ (dose to increase left ventricular dp/dt max by 50%) (Anaesthetised Cats) |
| --- | --- | --- | --- |
| 660 nM | Cc1nccn1-c1ccc2c(c1)CC1SC(=O)NN=C21 (centres unmarked) [Example 1, 7-(2-Methyl-1H-imidazol-1-yl)-9,9a-dihydroindeno[1,2-e][1,3,4]thiadiazine-2-(3H)-one] | 0.72 µmol/kg |  |
| 410 nM | Cc1cn(-c2ccc3c(c2)CC2SC(=O)NN=C32)cn1 (centres unmarked) [Example 2, 7-(4-Methyl-1H-imidazol-1-yl)-9,9a-dihydroindeno[1,2-e][1,3,4] thiadiazine-2-(3H)-one] | 0.46 µmol/kg |  |
|  | Amirone [reference compound] |  | 5.6 µmol/kg |
